# Data reported in paper PMC6398866 (PLoS ONE, 2019).
# How the values were obtained:
# [1] = test system: Ang II-induced hypertensive mice; details: cited from earlier work
# [2] = test system: AT1 mRNA; test: qRT-PCR of aortic tissue, Ang II mice; type: in vivo; details: Ang II-infused mice, 3 mg·kg^-1·day^-1 i.p. day 8 to 14, vs Ang II group
# [3] = test system: ACE1 mRNA; test: qRT-PCR of aortic tissue, Ang II mice; details: Ang II-infused mice, 3 mg·kg^-1·day^-1 i.p. day 8 to 14
# Protocol: (§1) Mice were anesthetized with a ketamine (120 mg/kg), and xylazine (6.2 mg/kg) mixture and 1-cm incisions were created on the backs of the mice. Ang II (1.3 mg·kg^-1·day^-1) was subcutaneously infused into the mice using an Alzet osmotic pump as described previously [26]. […] Ang II was dissolved in a 0.9% sodium chloride (NaCl) solution. The sham control mice received the vehicle (dimethyl sulfoxide [DMSO]). […] Mice were sacrificed at the end of the study by CO2 inhalation.
# (§2) Total RNA from the aorta tissue and cells was isolated with TriZol reagent (Invitrogen Life Technologies, Waltham, MA, USA), and 1 μg RNA was used for the reverse transcription (RT) reaction using TOPscript RT DryMIX (Enzynomics, Daejeon, South Korea). The mRNA amounts were determined using the SYBR Green PCR kit (Enzynomics, Daejeon, South Korea). All the data were normalized to the glyceraldehyde 3-phosphate dehydrogenase (GAPDH) expression using the 2-^ΔΔct method.
# [4] = test system: E2F3 mRNA; test: qRT-PCR of aortic tissue, Ang II mice; type: in vivo; details: Ang II-infused mice, 3 mg·kg^-1·day^-1 i.p. day 8 to 14, vs Ang II group
# [5] = test system: model of Cushing's syndrome; design: method as in PMID 28928236; details: model of Cushing's syndrome ref 23; cited from earlier work
# [6] = test system: rat aortic rings; test: Isometric tension measurement, U46619-precontracted aortic rings
# Protocol: A vasoconstriction-relaxation study was performed as described previously. Male Sprague-Dawley rats were purchased from Orient Bio (Gyeonggi-do, South Korea). Briefly, the thoracic aortas of the rats were excised and immersed in ice-cold, modified Krebs solution. The aortas were cleaned of all connective tissue, soaked in Krebs-bicarbonate solution, and cut into four ring segments (3.5 mm long). Each aortic ring was suspended in a water-jacketed organ bath (6 mL) maintained at 37°C and aerated with a mixture of 95% O2 and 5% CO2. Each ring was connected to an isometric force transducer (Danish Myo Technology, Skejbyparken, Aarhus N, Denmark). The rings were stretched to an optimal resting tension of 1.0 or 2.0 g, which was maintained throughout the experiment. Each ring was equilibrated in the organ bath solution for 90 min before the contractile responses were measured after the addition of 50 mM KCl.
# [7] = test system: MCP-1 mRNA; test: qRT-PCR of aortic tissue, Ang II mice; type: in vivo; details: Ang II-infused mice, 3 mg·kg^-1·day^-1 i.p. day 8 to 14, vs Ang II group
# [8] = test system: SOD3 mRNA; test: qRT-PCR of aortic tissue, Ang II mice; type: in vivo; details: Ang II-infused mice, 3 mg·kg^-1·day^-1 i.p. day 8 to 14, vs Ang II group
# [9] = test system: arginase 1 mRNA; test: qRT-PCR of aortic tissue, Ang II mice; type: in vivo; details: Ang II-infused mice, 3 mg·kg^-1·day^-1 i.p. day 8 to 14, vs Ang II group
# [10] = test system: BNP mRNA; test: qRT-PCR of heart tissue, Ang II mice; type: in vivo; details: Ang II-infused mice, 3 mg·kg^-1·day^-1 i.p. day 8 to 14, vs Ang II group
# [11] = test system: DDAH1 mRNA; test: qRT-PCR of aortic tissue, Ang II mice; details: Ang II-infused mice, 3 mg·kg^-1·day^-1 i.p. day 8 to 14, vs Ang II group
# Protocol: as §1, §2
# [12] = test system: p47phox mRNA; test: qRT-PCR of aortic tissue, Ang II mice; type: in vivo; details: Ang II-infused mice, 3 mg·kg^-1·day^-1 i.p. day 8 to 14, vs Ang II group
# [13] = test system: arginase 2 mRNA; test: qRT-PCR of aortic tissue, Ang II mice; type: in vivo; details: Ang II-infused mice, 3 mg·kg^-1·day^-1 i.p. day 8 to 14, vs Ang II group
# [14] = test system: Nox2 mRNA; test: qRT-PCR of aortic tissue, Ang II mice; type: in vivo; details: Ang II-infused mice, 3 mg·kg^-1·day^-1 i.p. day 8 to 14, vs Ang II group
# [15] = test system: skeletal α-actin mRNA; test: qRT-PCR of heart tissue, Ang II mice; type: in vivo; details: Ang II-infused mice, 3 mg·kg^-1·day^-1 i.p. day 8 to 14, vs Ang II group
# [16] = test system: ICAM-1 mRNA; test: qRT-PCR of aortic tissue, Ang II mice; type: in vivo; details: Ang II-infused mice, 3 mg·kg^-1·day^-1 i.p. day 8 to 14, vs Ang II group
# [17] = test system: cyclin E1 mRNA; test: qRT-PCR of aortic tissue, Ang II mice; type: in vivo; details: Ang II-infused mice, 3 mg·kg^-1·day^-1 i.p. day 8 to 14, vs Ang II group
# [18] = test system: Ang II-induced hypertensive mice; test: Aortic wall thickness (H&E staining) in Ang II mice; type: in vivo; details: Ang II-infused mice, 3 mg·kg^-1·day^-1 i.p. day 8 to 14, H&E, vs Ang II group
# [19] = test system: ANP mRNA; test: qRT-PCR of heart tissue, Ang II mice; type: in vivo; details: Ang II-infused mice, 3 mg·kg^-1·day^-1 i.p. day 8 to 14, vs Ang II group
# [20] = test system: vascular smooth muscle cells (VSMCs); test: NO production in VSMC medium (Griess assay); type: cell-based; details: MS-275 3 and 10 μM, Ang II 1 μM, 24 h, Griess reagent
# Protocol: VSMCs were seeded in 12 well plates.
# [21] = test system: IL-1β mRNA; test: qRT-PCR of aortic tissue, Ang II mice; type: in vivo; details: Ang II-infused mice, 3 mg·kg^-1·day^-1 i.p. day 8 to 14, vs Ang II group
# [22] = test system: collagen type III mRNA; test: qRT-PCR, Ang II mice; details: Ang II-infused mice, 3 mg·kg^-1·day^-1 i.p. day 8 to 14, S1 Fig
# Protocol: as §1, §2
# [23] = test system: Ang II-induced hypertensive mice; test: Systolic blood pressure (tail-cuff) in Ang II-induced hypertensive mice; type: in vivo; details: Ang II-infused mice, 3 mg·kg^-1·day^-1 i.p. day 8 to 14, vs Ang II group
# From the text: All animal experiments were approved by the Animal Experiment Committee of the Chonnam National University Medical School (CNU IACUC-H-2017-70) and carried out in accordance with the Guide for the Care and Use of Laboratory Animals (US National Institutes of Health Publication, 8th edition, 2011). CD-1 male mice (8-week-old) were purchased from OrientBio Company (Gyeonggi, South Korea). Alzet mini-osmotic pumps (model 1002) were purchased from Durect Corporation (Cupertino, CA, USA).
# [24] = test system: cyclin D1 mRNA; test: qRT-PCR of aortic tissue, Ang II mice; type: in vivo; details: Ang II-infused mice, 3 mg·kg^-1·day^-1 i.p. day 8 to 14, vs Ang II group
# [25] = test system: Nox1 mRNA; test: qRT-PCR of aortic tissue, Ang II mice; type: in vivo; details: Ang II-infused mice, 3 mg·kg^-1·day^-1 i.p. day 8 to 14, vs Ang II group
# [26] = test system: TNF-α mRNA; test: qRT-PCR of aortic tissue, Ang II mice; type: in vivo; details: Ang II-infused mice, 3 mg·kg^-1·day^-1 i.p. day 8 to 14, vs Ang II group
# [27] = test system: VCAM-1 mRNA; test: qRT-PCR of aortic tissue, Ang II mice; type: in vivo; details: Ang II-infused mice, 3 mg·kg^-1·day^-1 i.p. day 8 to 14, vs Ang II group
# [28] = test system: Ang II-induced hypertensive mice; test: Aortic collagen deposition (Masson's trichrome staining) in Ang II mice; details: Ang II-infused mice, 3 mg·kg^-1·day^-1 i.p. day 8 to 14, Masson's trichrome
# Protocol: Mice were anesthetized with a ketamine (120 mg/kg), and xylazine (6.2 mg/kg) mixture and 1-cm incisions were created on the backs of the mice. Ang II (1.3 mg·kg^-1·day^-1) was subcutaneously infused into the mice using an Alzet osmotic pump as described previously [26]. […] Ang II was dissolved in a 0.9% sodium chloride (NaCl) solution. The sham control mice received the vehicle (dimethyl sulfoxide [DMSO]). […] Mice were subjected to blood pressure measurements three times before determination of the systolic blood pressure on day 14 after Ang II infusion. The blood pressure was measured in awake mice using the tail-cuff method (BP-2000, Visitech Systems, Apex, NC, USA). Mice were sacrificed at the end of the study by CO2 inhalation.
# Aortic tissues were fixed in 4% paraformaldehyde at 25°C, embedded in paraffin, and cut into 3-μm thick sections. The tissue slides were deparaffinized three times with xylene and hydrated using serially diluted ethanol. After immersing in tap water for 2 min, the slides were stained with Gill’s hematoxylin V for 5 min and then washed with tap water for 5 min and 95% ethanol for 2 min. The slides were stained with Eosin Y for 1 min, dehydrated with ethanol and xylene, and mounted using Canada balsam. The aortic wall thickness was measured using the NIS Elements Software (Nikon, Japan). […]
# [29] = test system: CD68+ macrophages; test: CD68 immunohistochemistry of aorta (macrophage infiltration), Ang II mice; type: in vivo; details: Ang II-infused mice, 3 mg·kg^-1·day^-1 i.p. day 8 to 14, immunohistochemistry
# Protocol: For immunohistochemistry, staining was performed in aortic tissues using a primary CD68 antibody. Before incubation with primary antibodies, aorta sections received antigen retrieval using a citrate buffer. Negative controls were performed without a primary antibody.
# [30] = test system: GTPCH mRNA; test: qRT-PCR of aortic tissue, Ang II mice; type: in vivo; details: Ang II-infused mice, 3 mg·kg^-1·day^-1 i.p. day 8 to 14, vs Ang II group
# [31] = test system: Ang II-induced hypertensive mice; test: NO levels in serum and aorta of Ang II-infused mice (Griess assay); details: 3 mg·kg^-1·day^-1 i.p.
# Protocol: Mice were anesthetized with a ketamine (120 mg/kg), and xylazine (6.2 mg/kg) mixture and 1-cm incisions were created on the backs of the mice. Ang II (1.3 mg·kg^-1·day^-1) was subcutaneously infused into the mice using an Alzet osmotic pump as described previously [26]. […] Ang II was dissolved in a 0.9% sodium chloride (NaCl) solution. The sham control mice received the vehicle (dimethyl sulfoxide [DMSO]). […] Mice were subjected to blood pressure measurements three times before determination of the systolic blood pressure on day 14 after Ang II infusion. The blood pressure was measured in awake mice using the tail-cuff method (BP-2000, Visitech Systems, Apex, NC, USA).
# NO levels in the serum (100 μl) were measured without dilution. Aorta NO levels were determined using 50 μg of protein, which was deproteinized with 5% trichloroacetic acid (TCA).
# [32] = test system: iNOS mRNA; test: qRT-PCR of aortic tissue, Ang II mice; type: in vivo; details: Ang II-infused mice, 3 mg·kg^-1·day^-1 i.p. day 8 to 14, vs Ang II group
# [33] = test system: Cox-2 mRNA; test: qRT-PCR of aortic tissue, Ang II mice; type: in vivo; details: Ang II-infused mice, 3 mg·kg^-1·day^-1 i.p. day 8 to 14, vs Ang II group
# [34] = test system: GATA6 mRNA; test: qRT-PCR of aortic tissue, Ang II mice; type: in vivo; details: Ang II-infused mice, 3 mg·kg^-1·day^-1 i.p. day 8 to 14, vs Ang II group
# [35] = test system: AT1; details: through AT1 ref 25; cited from earlier work
# [36] = test system: spontaneously hypertensive rats (SHR); design: method as in PMID 22389387; details: long-term treatment, SHR ref 22; cited from earlier work
# [37] = test system: high-fat diet-induced hypertension; design: method as in PMID 28720877; details: by downregulating Ang II and AT1 ref 24; cited from earlier work
compound,measurement,setting,value
CN1CCc2c(c3ccccc3n2Cc2ccc(C(=O)NO)cc2)C1 [tubastatin A],hypertension,[1]; Ang II-infused mice ref 28,did not reduce
Nc1ccccc1NC(=O)c1ccc(CNC(=O)OCc2cccnc2)cc1 [MS-275],AT1 mRNA level in aorta,[2],decreased
same,ACE1 mRNA level in aorta,[3],significantly reduced
same,E2F3 mRNA level in aorta,[4],significantly inhibited
same,hypertension and hyperglycemia,[5],attenuates
same,vasorelaxation of U46619-precontracted aortic rings,"[6]; endothelium-intact and -denuded rat aortas, U46619 30 nM, MS-275 cumulative 0.003–3 μM",induced vasorelaxation
same,concentration at which maximum relaxation was observed,[6]; rat aortic rings precontracted with U46619 30 nM,3 µM
same,MCP-1 mRNA level in aorta,[7],significantly attenuated
same,SOD3 mRNA expression in aorta,[8],did not restore
same,arginase 1 mRNA level in aorta,[9],not reduced
same,BNP mRNA level in heart,[10],significantly reduced
same,DDAH1 mRNA level in aorta,[11],suppressed
same,p47phox mRNA level in aorta,[12],unchanged
same,arginase 2 mRNA level in aorta,[13],not reduced
same,Nox2 mRNA level in aorta,[14],unchanged
same,skeletal a-actin mRNA level in heart,[15],significantly reduced
same,ICAM-1 expression in aorta,[16],significantly inhibited
same,cyclin E1 mRNA level in aorta,[17],not significantly decreased
same,aortic wall thickness,[18],significantly decreased
same,ANP mRNA level in heart,[19],significantly reduced
same,NO level in VSMC medium lowered by Ang II,[20],significantly restored
same,IL-1β mRNA level in aorta,[21],significantly attenuated
same,collagen type III mRNA level,[22],reduced
same,systolic blood pressure,[23],significantly reduced
same,cyclin D1 mRNA level in aorta,[24],not significantly decreased
same,Nox1 mRNA level in aorta,[25],unchanged
same,TNF-α mRNA level in aorta,[26],significantly attenuated
same,VCAM-1 expression in aorta,[27],significantly inhibited
same,collagen deposition in the adventitia of aortic tissues,[28],attenuated
same,number of CD68+ macrophages in aorta tissue,[29],reduced
same,GTPCH mRNA level in aorta,[30],significantly reduced
same,NO level in aorta,[31],not induced
same,NO level in serum,[31],not induced
same,iNOS mRNA level in aorta,[32],significantly attenuated
same,Cox-2 mRNA level in aorta,[33],not significantly decreased
same,GATA6 mRNA level in aorta,[34],significantly suppressed
Nc1cc(F)ccc1NC(=O)/C=C/c1cnn(C/C=C/c2ccccc2)c1 [RGFP966],E2F3 mRNA level in aorta,[4],significantly inhibited
same,MCP-1 mRNA level in aorta,[7],not
same,SOD3 mRNA expression in aorta,[8],did not restore
same,arginase 1 mRNA level in aorta,[9],not reduced
same,BNP mRNA level in heart,[10],significantly reduced
same,p47phox mRNA level in aorta,[12],unchanged
same,arginase 2 mRNA level in aorta,[13],not reduced
same,Nox2 mRNA level in aorta,[14],unchanged
same,skeletal a-actin mRNA level in heart,[15],significantly reduced
same,cyclin E1 mRNA level in aorta,[17],not significantly decreased
same,aortic wall thickness,[18],significantly decreased
same,ANP mRNA level in heart,[19],significantly reduced
same,systolic blood pressure,[23],significantly reduced
same,cyclin D1 mRNA level in aorta,[24],not significantly decreased
same,Nox1 mRNA level in aorta,[25],unchanged
same,VCAM-1 expression in aorta,[27],not
same,number of CD68+ macrophages in aorta tissue,[29],reduced
same,GTPCH mRNA level in aorta,[30],significantly reduced
same,iNOS mRNA level in aorta,[32],not
same,Cox-2 mRNA level in aorta,[33],not significantly decreased
same,GATA6 mRNA level in aorta,[34],significantly suppressed
Cn1c(/C=C/C(=O)NO)ccc1/C=C/C(=O)c1cccc(F)c1 [MC1568],high systolic blood pressure,[1]; Ang II-induced hypertensive mice ref 26,reduces
"CC(/C=C/C(=O)NO)=C\[C@@H](C)C(=O)c1ccc(N(C)C)cc1 [TSA, trichostatin A]",hypertension and vasoconstriction,[35],inhibits
"CCCC(CCC)C(=O)O [VPA, valproic acid]","cardiac hypertrophy, inflammation, and hypertensive responses",[36],reduces
same,high-fat diet-induced hypertension,[37],prevents
"COC(=O)[C@@H](N)CCCNC(N)=N[N+](=O)[O-] [L-NAME, N^G-nitro-L-arginine methyl ester]",effect of pretreatment on MS-275-induced vascular relaxation,"[6]; endothelium-intact rat aortic rings, L-NAME 10 or 100 μM for 30 min",reduced
